Source: publication PMC11984388, “A brain-accessible peptide modulates stroke inflammatory response and neurotoxicity by targeting BDNF-receptor TrkB-T1 specific interactome” (Theranostics, 2025)
Residues, ends and D or L forms follow the SMILES beside them. *: point of attachment. Biotin = O=C1N[C@H]2[C@H](CS[C@H]2CCCCC(=O)*)N1

Assays:
[1] = Peptide detection in brain cortex after photothrombotic ischemia; type: in vivo; conditions: 3 nmol/g i.v. 1 h after damage, male and female mice sacrificed 5 h post-stroke; Fluorescein Avidin D (Fig 5C)
Experimental: Vehicle (saline), Bio-TMyc or Bio-TT1Ct (3 nmol/g) were retro-orbitally injected in mice one hour after induction of photothrombotic damage or, alternatively, undamaged animals. In the first case, animals were sacrificed 5 h after damage induction while, the second group was sacrificed 30 min after peptide administration. The details of brain fixation and cryoprotection for peptide visualization and/or immunohistochemistry are provided in the Supplementary material. […]
Finally, the sa mple s were mounted in Prolong Diamond. The images were acquired using an inverted Zeiss LSM 710 laser confocal microscope (Jena, Germany) with a 40x or 63x Plan-Apochromatic oil immersion objective. Images corre spond to single se ctions and were normalized for eac h colour se para tely and process ed for presenta tion with ImageJ (NIH Image) and Fiji.
Peptide visualization and immunohistochemis tr y in brain cortex
For peptide visua liz ation in undamaged or damaged brains, animals were deeply anes thetized and intra cardially perfus ed with cold PBS and 4% paraformalde hyde in PBS. Brains were post-fixed in the sa m e fixative at 4°C for 24 h and cryoprote cted in 30% suc ros e for 48 h at 4°C. […]

MEF2D = assay: Western blot in excitotoxicity; type: cell-based, rat; conditions: peptide 15 µM 30 min, NMDA 30-120 min; normalized to NSE; differences not statistically significant compared to TMyc; n = 5
Experimental: (§1) amounts were combined with streptavidin-agarose beads previously was hed with NP-40 lysis buffer and incubated at room temperature for 1.5 h with agitation. Sedimented beads were was hed 3 times with the NP-40 lysis buffer to remove poss ible non-spe cifica lly bounded proteins, and peptides and their interacting proteins were released by incubation at 50°C for 40 min in RI P A modifie d buffer (50 mM Tris HCl pH 8.0, 150 mM NaC l, 1% sodium deoxycholate , 1% NP-40) combined with protease and phospha tase inhibitors as before .
(§2) Prote omic analysis of Bio-sT T1Ct-inte racting proteins
(§3) Prote omic analys is was performed in Pros taR (1.34.6) software tool, using the protocol for protein-level analys is. Prote omic abundanc es from 4 independent experiments were log-transforme d and filtered follow ing quality parameters: proteins present in at least >50% of one of the conditions and identifie d by at least 2 unique peptides . After, data was normalized by LOESS (locally es tima te d sc atterplot smoothing, k=0.7), and POV (par tially obse rved values ) and ME C (miss ing in entire condition values ) imputations were made using, respec tive ly, KNN (k-neares t-neighbour k=10) and det.quantile (quantile imputation using quantile = 2,5).
(§4) Differential analys is was performed using limma (3.16). Multiple comparison p-values where calibrated using sl i m algorithm and the FDR (fals e disc overy rate) is indicated for eac h comparison. For PCA (principal component analys is ), filte red, normalized and imputed data was use d corre cted for batch ef fe ct using removeBatc hEffe ct {limma} function. […]
(§5) dry milk solution in Tris Buffere d Saline-Tween (TBS-T, 20 mM Tris HCl pH 7.5, 137 mM NaC l, 0.05% Tween-20) and incubated overnight at 4°C with prima ry antibodies . […] To conclude, immunore activity was detecte d using Clar ity Wes ter n ECL Blotting Substrate (BioRad) and band intensity was quantified by dens itome tric analys is (Photos hop, Adobe). […] Multiple independent experiments were car r ied out and quantitated as detailed in the figure legends . […]

TrkB-T1 = assay: Western blot in excitotoxicity; type: cell-based, rat; conditions: peptide 15 µM 30 min, NMDA 30-120 min; compared to TMyc
Experimental: as §1, §2, §3, §4, §5

pCREB = assay: Western blot in excitotoxicity; type: cell-based, rat; conditions: peptide 15 µM 30 min, NMDA 30-120 min; normalized to NSE; differences not statistically significant compared to TMyc; n = 5
Experimental: as §1, §2, §3, §4, §5

Compound: CC[C@H](C)[C@H](NC(=O)[C@H](CC(C)C)NC(=O)[C@H](CCCCN)NC(=O)[C@H](CCC(N)=O)NC(=O)[C@H](CCC(=O)O)NC(=O)[C@H](CCC(=O)O)NC(=O)[C@H](C)NC(=O)[C@H](CCCNC(=N)N)NC(=O)[C@H](CCCNC(=N)N)NC(=O)[C@H](CCCNC(=N)N)NC(=O)[C@H](CCC(N)=O)NC(=O)[C@H](CCCNC(=N)N)NC(=O)[C@H](CCCNC(=N)N)NC(=O)[C@H](CCCCN)NC(=O)[C@H](CCCCN)NC(=O)[C@H](CCCNC(=N)N)NC(=O)CNC(=O)[C@H](Cc1ccc(O)cc1)NC(=O)CCCC[C@@H]1SC[C@@H]2NC(=O)N[C@@H]21)C(=O)N[C@@H](CO)C(=O)N[C@@H](CCC(=O)O)C(=O)N[C@@H](CCC(=O)O)C(=O)N[C@@H](CC(=O)O)C(=O)N[C@@H](CC(C)C)C(=O)N[C@@H](CC(C)C)C(=O)N[C@@H](CCCNC(=N)N)C(N)=O [Bio-TMyc, reference compound] (Biotin-YGRKKRRQRRRAEEQKLISEEDLLR-NH2)
- Time of peptide detection in brain cortex after administration [1]: at least 4 h

Compound: Ac-YGRKKRRQRRRPPFVLFHKIPLDG-NH2 [TT1Ct]
- Effect on MEF2D levels (MEF2D): partially preserved
- Effect on TrkB-T1 regulation (TrkB-T1): did not have significant effects
- Effect on pCREB levels (pCREB): partially preserved
